For 25 compounds, IC50 results are on record in patent publication US10722514B2 (FLX Bio, Inc., priority 2017, dated 2020).

The structures appear in SMILES notation.

The target in the experiment is T1, recombinant full-length USP7 (Homo sapiens, UniProt Q93009).
T1 construct: A 25 μl reaction volume containing recombinant full-length USP7 (62 pM)
Put plainly: USP7-mediated ubiquitin-rhodamine cleavage assay. The settings on record: recombinant full-length USP7 62 pM; ubiquitin-rhodamine 100 nM; 30-minute pre-incubation, 1 hour reaction at room temperature; read-out: Potency (USP7 IC50). Format: biochemical. The procedure, abridged:
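After compound and enzyme (62 pM) sat together 30 min at RT, 100 nM fluorogenic ubiquitin-rhodamine substrate was added for 1 h protected from light. Acetic acid quenched the reaction prior to the fluorescence read.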

T1 sequence (Q93009 whole entry): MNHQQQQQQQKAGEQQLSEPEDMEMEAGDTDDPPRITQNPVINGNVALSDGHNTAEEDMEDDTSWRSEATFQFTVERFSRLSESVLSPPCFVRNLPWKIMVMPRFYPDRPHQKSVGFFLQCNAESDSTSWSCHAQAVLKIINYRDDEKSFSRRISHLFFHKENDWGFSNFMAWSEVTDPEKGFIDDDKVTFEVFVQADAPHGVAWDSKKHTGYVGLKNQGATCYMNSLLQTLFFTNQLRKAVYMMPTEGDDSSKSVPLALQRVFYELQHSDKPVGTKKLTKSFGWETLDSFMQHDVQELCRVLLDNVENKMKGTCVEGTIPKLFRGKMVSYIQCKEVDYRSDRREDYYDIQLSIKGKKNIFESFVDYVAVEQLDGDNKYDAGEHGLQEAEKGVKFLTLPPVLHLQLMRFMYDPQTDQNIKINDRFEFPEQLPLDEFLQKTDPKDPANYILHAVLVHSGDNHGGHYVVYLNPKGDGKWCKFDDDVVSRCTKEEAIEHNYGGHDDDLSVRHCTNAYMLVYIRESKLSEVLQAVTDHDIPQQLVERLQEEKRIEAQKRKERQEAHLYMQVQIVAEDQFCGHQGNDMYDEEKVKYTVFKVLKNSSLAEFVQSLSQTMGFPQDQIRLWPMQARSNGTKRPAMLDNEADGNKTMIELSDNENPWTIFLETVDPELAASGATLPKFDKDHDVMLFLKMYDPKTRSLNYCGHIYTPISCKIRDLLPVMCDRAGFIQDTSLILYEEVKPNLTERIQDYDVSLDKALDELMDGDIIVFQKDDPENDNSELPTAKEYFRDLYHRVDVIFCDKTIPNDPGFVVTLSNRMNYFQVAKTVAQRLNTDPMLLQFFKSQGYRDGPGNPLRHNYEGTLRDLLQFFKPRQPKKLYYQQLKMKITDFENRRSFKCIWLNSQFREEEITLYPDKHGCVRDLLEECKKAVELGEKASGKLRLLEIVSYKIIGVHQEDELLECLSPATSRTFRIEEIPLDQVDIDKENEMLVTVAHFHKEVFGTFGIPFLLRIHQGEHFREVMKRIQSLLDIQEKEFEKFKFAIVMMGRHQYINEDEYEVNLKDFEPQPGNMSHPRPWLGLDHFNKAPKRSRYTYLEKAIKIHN

The term IC50 denotes the concentration at which inhibition is half-maximal. In the case of `Cc1cc(Cl)cc(-c2ccnc3cc(Cn4c(=O)ccn(CC(F)(F)F)c4=O)sc23)c1OC1CC2CNC1C2` (stereo not shown) [Example 540, 3-[[7-[2-(3-azabicyclo[2.2.1]heptan-5-yloxy)-5-chloro-3-methyl-phenyl]thieno[3,2-b]pyridin-2-yl]methyl]-1-(2,2,2-trifluoroethyl)pyrimidine-2,4-dione], the IC50 is less than 1000 nM.

Take `Cc1cc(Cl)cc(-c2ncnc3cc(Cn4c(=O)ccn(C(C)C)c4=O)sc23)c1OC1CC(N)C1` (stereo not shown) [Example 541, 3-[[4-[2-(3-aminocyclobutoxy)-5-chloro-3-methyl-phenyl]thieno[3,2-d]pyrimidin-6-yl]methyl]-1-isopropyl-pyrimidine-2,4-dione; 2,2,2-trifluoroacetic acid]: the IC50 was less than 1000 nM. `Cc1cc(Cl)cc(-c2ncnc3cc(Cn4c(=O)ccn(C(C)C)c4=O)sc23)c1O[C@H]1CC[C@H](N)C1` [Example 542, 3-[[4-[2-[(1S,3S)-3-aminocyclopentoxy]-5-chloro-3-methyl-phenyl]thieno[3,2-d]pyrimidin-6-yl]methyl]-1-isopropyl-pyrimidine-2,4-dione; 2,2,2-trifluoroacetic acid]: the IC50 was less than 1000 nM. Regarding `Cc1cc(Cl)cc(-c2ncnc3cc(Cn4c(=O)ccn(CC(F)(F)F)c4=O)sc23)c1O[C@H]1CC[C@H](N)C1` [Example 543, 3-[[4-[2-[(1S,3S)-3-aminocyclopentoxy]-5-chloro-3-methyl-phenyl]thieno[3,2-d]pyrimidin-6-yl]methyl]-1-(2,2,2-trifluoroethyl)pyrimidine-2,4-dione; 2,2,2-trifluoroacetic acid], the IC50 is less than 1000 nM. As to `Cc1cc(Cl)cc(-c2ccnc3cc(Cn4c(=O)ccn(C)c4=O)sc23)c1O[C@@H]1CCNC[C@]1(C)F` [Example 544, 3-[[7-[5-chloro-2-[[(3S,4R)-3-fluoro-3-methyl-4-piperidyl]oxy]-3-methyl-phenyl]thieno[3,2-b]pyridin-2-yl]methyl]-1-methyl-pyrimidine-2,4-dione; 2,2,2-trifluoroacetic acid], the IC50 is less than 1000 nM. As for `Cc1cc(Cl)cc(-c2ccnc3cc(Cn4c(=O)ccn(C)c4=O)sc23)c1O[C@H]1CCNC[C@]1(C)F` [Example 545, 3-[[7-[5-chloro-2-[[(3S,4S)-3-fluoro-3-methyl-4-piperidyl]oxy]-3-methyl-phenyl]thieno[3,2-b]pyridin-2-yl]methyl]-1-methyl-pyrimidine-2,4-dione; 2,2,2-trifluoroacetic acid], the IC50 was less than 1000 nM.

With `Cc1cc(Cl)cc(-c2ccnc3cc(Cn4c(=O)ccn(C)c4=O)sc23)c1OC1CCNCC1(C)C` (stereo not shown) [Example 546, 3-[[7-[5-chloro-2-[(3,3-dimethyl-4-piperidyl)oxy]-3-methyl-phenyl]thieno[3,2-b]pyridin-2-yl]methyl]-1-methyl-pyrimidine-2,4-dione; 2,2,2-trifluoroacetic acid], the IC50 is less than 1000 nM. As to `Cc1cc(Cl)cc(-c2ccnc3cc(Cn4c(=O)c(F)cn(C(C)C)c4=O)sc23)c1O[C@H]1CCCNC1` [Example 547, 3-[[7-[5-chloro-3-methyl-2-[[(3S)-3-piperidyl]oxy]phenyl]thieno[3,2-b]pyridin-2-yl]methyl]-5-fluoro-1-isopropyl-pyrimidine-2,4-dione], the IC50 was less than 1000 nM. For the compound `Cc1cc(Cl)cc(-c2ncnc3cc(Cn4c(=O)c(F)cn(C(C)C)c4=O)sc23)c1O[C@H]1CCCNC1` [Example 548, 3-[[4-[5-chloro-3-methyl-2-[[(3S)-3-piperidyl]oxy]phenyl]thieno[3,2-d]pyrimidin-6-yl]metthyl]-5-fluoro-1-isopropyl-pyrimidine-2,4-dione], the IC50 is less than 1000 nM. With `Cc1cc(Cl)cc(-c2ccnc3cc(Cn4c(=O)ccn(CC(F)(F)F)c4=O)sc23)c1O[C@@H]1CCNC[C@@H]1C` [Example 549, 3-[[7-[5-chloro-3-methyl-2-[[(3S,4R)-3-methyl-4-piperidyl]oxy]phenyl]thieno[3,2-b]pyridin-2-yl]methyl]-1-(2,2,2-trifluoroethyl)pyrimidine-2,4-dione], the IC50 was less than 1000 nM. As to `Cc1cc(Cl)cc(-c2ccnc3cc(Cn4c(=O)c(F)cn(C(C)C)c4=O)sc23)c1O[C@@H]1CCNC[C@@H]1C` [Example 550, 3-[[7-[5-chloro-3-methyl-2-[[(3S,4R)-3-methyl-4-piperidyl]oxy]phenyl]thieno[3,2-b]pyridin-2-yl]methyl]-5-fluoro-1-isopropyl-pyrimidine-2,4-dione], the half-inhibitory concentration (IC50) is less than 1000 nM.

Take `Cc1cc(Cl)cc(-c2ccnc3cc(Cn4c(=O)c(F)cn(CC(F)(F)F)c4=O)sc23)c1O[C@@H]1CCNC[C@@H]1C` [Example 551, 3-[[7-[5-chloro-3-methyl-2-[[(3S,4R)-3-methyl-4-piperidyl]oxy]phenyl]thieno[3,2-b]pyridin-2-yl]methyl]-5-fluoro-1-(2,2,2-trifluoroethyl)pyrimidine-2,4-dione]: the IC50 was less than 1000 nM. `Cc1cc(Cl)cc(-c2ccnc3cc(Cn4c(=O)ccn(C)c4=O)sc23)c1OCCN` [Example 552, 3-[[7-[2-(2-aminoethoxy)-5-chloro-3-methyl-phenyl]thieno[3,2-b]pyridin-2-yl]methyl]-1-methyl-pyrimidine-2,4-dione; 2,2,2-trifluoroacetic acid]: the IC50 is less than 1000 nM. `Cc1cc(Cl)cc(-c2ccnc3cc(Cn4c(=O)ccn(C)c4=O)sc23)c1OC(C)CN` (stereo not shown) [Example 553, 3-[[7-[2-(2-amino-1-methyl-ethoxy)-5-chloro-3-methyl-phenyl]thieno[3,2-b]pyridin-2-yl]methyl]-1-methyl-pyrimidine-2,4-dione; 2,2,2-trifluoroacetic acid]: the half-inhibitory concentration (IC50) is less than 1000 nM. The figure for `Cc1cc(Cl)cc(-c2ccnc3cc(Cn4c(=O)ccn(C)c4=O)sc23)c1OCC(C)N` (stereo not shown) [Example 554, 3-[[7-[2-(2-aminopropoxy)-5-chloro-3-methyl-phenyl]thieno[3,2-b]pyridin-2-yl]methyl]-1-methyl-pyrimidine-2,4-dione; 2,2,2-trifluoroacetic acid] is less than 1000 nM; for `Cc1cc(Cl)cc(-c2ccnc3cc(Cn4c(=O)c(F)cn(CC(F)(F)F)c4=O)sc23)c1O[C@H]1CCCNC1` [Example 555, 3-[[7-[5-chloro-3-methyl-2-[[(3S)-3-piperidyl]oxy]phenyl]thieno[3,2-b]pyridin-2-yl]methyl]-5-fluoro-1-(2,2,2-trifluoroethyl)pyrimidine-2,4-dione] it is less than 1000 nM; for `Cc1cc(Cl)cc(-c2ncnc3cc(Cn4c(=O)c(F)cn(CC(F)(F)F)c4=O)sc23)c1O[C@H]1CCCNC1` [Example 556, 3-[[4-[5-chloro-3-methyl-2-[[(3S)-3-piperidyl]oxy]phenyl]thieno[3,2-d]pyrimidin-6-yl]methyl]-5-fluoro-1-(2,2,2-trifluoroethyl)pyrimidine-2,4-dione] it is less than 1000 nM.

With `Cc1cc(Cl)cc(-c2ccnc3cc(Cn4c(=O)c(C)cn(CC(F)(F)F)c4=O)sc23)c1O[C@H]1CCCNC1` [Example 557, 3-[[7-[5-chloro-3-methyl-2-[[(3S)-3-piperidyl]oxy]phenyl]thieno[3,2-b]pyridin-2-yl]methyl]-5-methyl-1-(2,2,2-trifluoroethyl)pyrimidine-2,4-dione], the IC50 is less than 1000 nM. Turning to `Cc1cc(Cl)cc(-c2ccnc3cc(Cn4c(=O)ccn(CC(F)(F)F)c4=O)sc23)c1O[C@@H]1CCNC[C@H]1C` [Example 558, 3-[[7-[5-chloro-3-methyl-2-[[(3R,4R)-3-methyl-4-piperidyl]oxy]phenyl]thieno[3,2-b]pyridin-2-yl]methyl]-1-(2,2,2-trifluoroethyl)pyrimidine-2,4-dione], the IC50 is less than 1000 nM. `Cc1cc(Cl)cc(-c2ccnc3cc(Cn4c(=O)ccn(CC(F)(F)F)c4=O)sc23)c1O[C@H]1CCNC[C@@H]1F` [Example 559, 3-[[7-[5-chloro-2-[[(3S,4S)-3-fluoro-4-piperidyl]oxy]-3-methyl-phenyl]thieno[3,2-b]pyridin-2-yl]methyl]-1-(2,2,2-trifluoroethyl)pyrimidine-2,4-dione]: the IC50 was less than 1000 nM. The figure for `Cc1cc(Cl)cc(-c2ncnc3cc(Cn4c(=O)ccn(C)c4=O)sc23)c1O[C@H]1CCNC[C@@H]1F` [Example 560, 3-[[4-[5-chloro-2-[[(3S,4S)-3-fluoro-4-piperidyl]oxy]-3-methyl-phenyl]thieno[3,2-d]pyrimidin-6-yl]methyl]-1-methyl-pyrimidine-2,4-dione] is less than 1000 nM; for `Cc1cc(Cl)cc(-c2ncnc3cc(Cn4c(=O)ccn(CC(F)(F)F)c4=O)sc23)c1O[C@@H]1CCNC[C@H]1C` [Example 561, 3-[[4-[5-chloro-3-methyl-2-[[(3R,4R)-3-methyl-4-piperidyl]oxy]phenyl]thieno[3,2-d]pyrimidin-6-yl]methyl]-1-(2,2,2-trifluoroethyl)pyrimidine-2,4-dione] it is less than 1000 nM. With `Cc1cc(Cl)cc(-c2ncnc3cc(Cn4c(=O)ccn(CC(F)(F)F)c4=O)sc23)c1O[C@H]1CC[C@H](C)NC1` [Example 562, 3-[[4-[5-chloro-3-methyl-2-[[(3S,6S)-6-methyl-3-piperidyl]oxy]phenyl]thieno[3,2-d]pyrimidin-6-yl]methyl]-1-(2,2,2-trifluoroethyl)pyrimidine-2,4-dione; 2,2,2-trifluoroacetic acid], the IC50 is less than 1000 nM.

As for `Cc1cc(Cl)cc(-c2ccnc3cc(Cn4c(=O)ccn(C(C)C)c4=O)sc23)c1O[C@H]1CCNC[C@@H]1F` [Example 563, 3-[[7-[5-chloro-2-[[(3S,4S)-3-fluoro-4-piperidyl]oxy]-3-methyl-phenyl]thieno[3,2-b]pyridin-2-yl]methyl]-1-isopropyl-pyrimidine-2,4-dione], the IC50 was less than 1000 nM. As to `Cc1cc(Cl)cc(-c2ncnc3cc(Cn4c(=O)ccn(C(C)C)c4=O)sc23)c1O[C@H]1CCNC[C@@H]1F` [Example 564, 3-[[4-[5-chloro-2-[[(3S,4S)-3-fluoro-4-piperidyl]oxy]-3-methyl-phenyl]thieno[3,2-d]pyrimidin-6-yl]methyl]-1-isopropyl-pyrimidine-2,4-dione], the IC50 is less than 1000 nM.
